Test results reported in the NIST ThermoML archive (doi:10.1016/j.fluid.2007.01.029).
Numbers after ± are expanded uncertainties.

Settings: Crystal

Row | Compound | Normal melting temperature
1 | C1CC[C@H]2CCCC[C@H]2C1 [cis-decahydronaphthalene] | -45.08 ± 0.6 °C
2 | C1CC[C@H]2CCCC[C@@H]2C1 [trans-decahydronaphthalene] | -30.44 ± 0.6 °C

Further lines, results first:

Row | Normal melting temperature | Compound
3 | 5.44 ± 0.6 °C | c1ccccc1 [benzene]
4 | 6.48 ± 0.6 °C | C1CCCCC1 [cyclohexane]
5 | 79.99 ± 0.6 °C | c1ccc2ccccc2c1 [naphthalene]
